Data from patent US9988429B2, “Glucagon analogues” (Zealand Pharma A/S, priority 2013, dated 2018).
Starred links: 1 amine or outer side, 2 acyl side, 3 side chain; linkers in the order of their positions; H or OH if unused. Non-standard residues stand in square brackets, D forms with d. Residues, ends and D or L forms follow the SMILES beside them. Groups on a side chain read outwards from the residue. *: point of attachment. γGlu = O=C(O)[C@H](CCC(=O)[*:2])N[*:1]; Palmitoyl = CCCCCCCCCCCCCCCC(=O)*

Molecular target: T1, human glucagon-like peptide 1 receptor (GLP-1R) (Homo sapiens, UniProt P43220)
T1 construct: expressed in transfected cells
T1 sequence (P43220 24-463): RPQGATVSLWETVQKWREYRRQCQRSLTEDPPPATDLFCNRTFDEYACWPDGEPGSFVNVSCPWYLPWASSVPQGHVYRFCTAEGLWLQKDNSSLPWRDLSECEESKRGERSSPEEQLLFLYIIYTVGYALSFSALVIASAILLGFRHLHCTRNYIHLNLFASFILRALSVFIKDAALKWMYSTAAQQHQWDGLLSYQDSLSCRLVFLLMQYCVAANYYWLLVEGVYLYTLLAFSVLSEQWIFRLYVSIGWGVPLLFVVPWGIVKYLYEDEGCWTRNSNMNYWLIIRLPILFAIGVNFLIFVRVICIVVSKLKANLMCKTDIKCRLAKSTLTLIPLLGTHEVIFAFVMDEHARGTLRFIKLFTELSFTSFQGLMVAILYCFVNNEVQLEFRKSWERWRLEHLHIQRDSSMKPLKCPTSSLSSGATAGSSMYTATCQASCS
Test: GLP-1 receptor efficacy assay (cAMP AlphaScreen, CHO cells)
Format: cell-based
Settings: for Ratio GLP-1/Glucagon: EC50 [GLP-1R] / EC50 [Glucagon-R], human receptors in CHO-K1; for EC50: cAMP formation, CHO cells expressing human GLP-1-R, read-out: EC50 hGLP-1R CHO-K1
Description: The mammalian expression vectors encoding the Glucagon-R or the GLP-1-R were transfected into Chinese hamster ovary (CHO) cells by the Attractene method. Stably expressing clones were obtained by Zeocin selection (250 μg/mL) upon limited dilution of cells resistant to the selection pressure. […] One Glucagon-R expressing clone and one GLP-1-R expressing clone were chosen for compound profiling.
CHO cells expressing the human Glucagon-R, or human GLP-1-R were seeded 24 hours prior to the assay at 30,000 cells per well in 96-well microtiter plates in culture in 100 μl growth medium. On the day of analysis, growth medium was removed and the cells were washed once with 200 μl of assay buffer (Krebs-Ringer-buffer—KRBH). The buffer was removed and the cells were incubated for 15 min at room temperature in 10 μl KRBH (KRBH+10 mM HEPES, 5 mM NaHCO3, 0.1% (V/V) BSA) with 0.1 mM IBMX in deionized water containing increasing concentrations of test peptides. The reaction was stopped by the addition of lysis buffer (0.1% w/v BSA, 5 mM HEPES, 0.3% v/v Tween-20). After cell lysis for 10 min at room temperature, lysates were transferred to 384-well plates and 10 μl of acceptor/donorbead mixture as contained in the AlphaScreen™ cAMP Functional Assay Kit was added. After one hour of incubation at room temperature in the dark, the cAMP content was determined applying the AlphaScreen™ cAMP Functional Assay Kit from Perkin-Elmer according to manufacturer instructions. […] The GLP-1/glucagon ratio is calculated as defined earlier.

| SMILES | Ratio GLP-1/Glucagon | EC50 |
| --- | --- | --- |
| CCCCCCCCCCCCCCCC(=O)N[C@@H](CCC(=O)NCCCC[C@H](NC(=O)[C@H](CO)NC(=O)[C@H](CC(=O)O)NC(=O)[C@H](CC(C)C)NC(=O)[C@H](Cc1ccc(O)cc1)NC(=O)[C@H](CCCCN)NC(=O)[C@H](CO)NC(=O)[C@H](Cc1ccc(O)cc1)NC(=O)[C@H](CC(=O)O)NC(=O)[C@H](CO)NC(=O)[C@@H](NC(=O)[C@H](Cc1ccccc1)NC(=O)[C@@H](NC(=O)CNC(=O)[C@H](CCC(N)=O)NC(=O)[C@H](C)NC(=O)[C@@H](N)Cc1c[nH]cn1)[C@@H](C)O)[C@@H](C)O)C(=O)N[C@@H](C)C(=O)N[C@@H](C)C(=O)N[C@@H](Cc1c[nH]cn1)C(=O)N[C@@H](CC(=O)O)C(=O)N[C@@H](Cc1ccccc1)C(=O)N[C@H](C(=O)N[C@@H](CCC(=O)O)C(=O)N[C@@H](Cc1c[nH]c2ccccc12)C(=O)N[C@@H](CC(C)C)C(=O)N[C@@H](CC(C)C)C(=O)N[C@@H](CO)C(=O)N[C@@H](C)C(N)=O)C(C)C)C(=O)O [Compound 1] | 2.26 | – |
| CCCCCCCCCCCCCCCC(=O)N[C@@H](CCC(=O)NCCCC[C@H](NC(=O)[C@H](CO)NC(=O)[C@H](CC(=O)O)NC(=O)[C@H](CC(C)C)NC(=O)[C@H](Cc1ccc(O)cc1)NC(=O)[C@H](CCCCN)NC(=O)[C@H](CO)NC(=O)[C@H](Cc1ccc(O)cc1)NC(=O)[C@H](CC(=O)O)NC(=O)[C@H](CO)NC(=O)[C@@H](NC(=O)[C@H](Cc1ccccc1)NC(=O)[C@@H](NC(=O)CNC(=O)[C@H](Cc1c[nH]cn1)NC(=O)[C@@H](C)NC(=O)[C@@H](N)Cc1c[nH]cn1)[C@@H](C)O)[C@@H](C)O)C(=O)N[C@@H](C)C(=O)N[C@@H](C)C(=O)N[C@@H](Cc1c[nH]cn1)C(=O)N[C@@H](CC(=O)O)C(=O)N[C@@H](Cc1ccccc1)C(=O)N[C@H](C(=O)N[C@@H](CCC(=O)O)C(=O)N[C@@H](Cc1c[nH]c2ccccc12)C(=O)N[C@@H](CC(C)C)C(=O)N[C@@H](CC(C)C)C(=O)N[C@@H](CO)C(=O)N[C@@H](C)C(N)=O)C(C)C)C(=O)O [Compound 7] (H-H[dA]HGTFTSDYSKYLDSK([γGlu-Palmitoyl])AAHDFVEWLLSA-NH2) | 0.58 | – |
| CCCCCCCCCCCCCCCC(=O)N[C@@H](CCC(=O)NCCCC[C@H](NC(=O)[C@H](CO)NC(=O)[C@H](CC(=O)O)NC(=O)[C@H](CC(C)C)NC(=O)[C@H](Cc1ccc(O)cc1)NC(=O)[C@H](CCCCN)NC(=O)[C@H](CO)NC(=O)[C@H](Cc1ccc(O)cc1)NC(=O)[C@H](CC(=O)O)NC(=O)[C@H](CO)NC(=O)[C@@H](NC(=O)[C@H](Cc1ccccc1)NC(=O)[C@@H](NC(=O)CNC(=O)[C@H](CCC(N)=O)NC(=O)[C@H](CO)N(C)C(=O)[C@@H](N)Cc1c[nH]cn1)[C@@H](C)O)[C@@H](C)O)C(=O)N[C@@H](C)C(=O)N[C@@H](C)C(=O)N[C@@H](Cc1c[nH]cn1)C(=O)N[C@@H](CC(=O)O)C(=O)N[C@@H](Cc1ccccc1)C(=O)N[C@H](C(=O)N[C@@H](CCC(=O)O)C(=O)N[C@@H](Cc1c[nH]c2ccccc12)C(=O)N[C@@H](CC(C)C)C(=O)N[C@@H](CC(C)C)C(=O)N[C@@H](CO)C(=O)N[C@@H](C)C(N)=O)C(C)C)C(=O)O [Compound 2] | 3.83 | – |
| CCCCCCCCCCCCCCCC(=O)N[C@@H](CCC(=O)NCCCC[C@H](NC(=O)[C@H](CO)NC(=O)[C@H](CC(=O)O)NC(=O)[C@H](CC(C)C)NC(=O)[C@H](Cc1ccc(O)cc1)NC(=O)[C@H](CCCCN)NC(=O)[C@H](CO)NC(=O)[C@H](Cc1ccc(O)cc1)NC(=O)[C@H](CC(=O)O)NC(=O)[C@H](CO)NC(=O)[C@@H](NC(=O)[C@H](Cc1ccccc1)NC(=O)[C@@H](NC(=O)CNC(=O)[C@H](Cc1c[nH]cn1)NC(=O)[C@H](C)NC(=O)[C@@H](N)Cc1c[nH]cn1)[C@@H](C)O)[C@@H](C)O)C(=O)N[C@@H](C)C(=O)N[C@@H](C)C(=O)N[C@@H](Cc1c[nH]cn1)C(=O)N[C@@H](CC(=O)O)C(=O)N[C@@H](Cc1ccccc1)C(=O)N[C@H](C(=O)N[C@@H](CCC(=O)O)C(=O)N[C@@H](Cc1c[nH]c2ccccc12)C(=O)N[C@@H](CC(C)C)C(=O)N[C@@H](CC(C)C)C(=O)N[C@@H](CO)C(=O)N[C@@H](C)C(N)=O)C(C)C)C(=O)O [Compound 6] (H-HAHGTFTSDYSKYLDSK([γGlu-Palmitoyl])AAHDFVEWLLSA-NH2) | 0.75 | – |

The remaining lines, values ahead:

| Ratio GLP-1/Glucagon | EC50 | SMILES |
| --- | --- | --- |
| – | 0.14 nM | CCCCCCCCCCCCCCCC(=O)N[C@@H](CCC(=O)NCCCC[C@H](NC(=O)[C@H](CCC(=O)O)NC(=O)[C@H](CC(=O)O)NC(=O)[C@H](CC(C)C)NC(=O)[C@H](Cc1ccc(O)cc1)NC(=O)[C@H](CCCCN)NC(=O)[C@H](CO)NC(=O)[C@H](Cc1ccc(O)cc1)NC(=O)[C@H](CC(=O)O)NC(=O)[C@H](CO)NC(=O)[C@@H](NC(=O)[C@H](Cc1ccccc1)NC(=O)[C@@H](NC(=O)CNC(=O)[C@H](CCC(N)=O)NC(=O)[C@@H](C)NC(=O)[C@@H](N)Cc1c[nH]cn1)[C@@H](C)O)[C@@H](C)O)C(=O)N[C@@H](C)C(=O)N[C@@H](C)C(=O)N[C@@H](CCCCN)C(=O)N[C@@H](CC(=O)O)C(=O)N[C@@H](Cc1ccccc1)C(=O)N[C@H](C(=O)N[C@@H](CCC(=O)O)C(=O)N[C@@H](Cc1c[nH]c2ccccc12)C(=O)N[C@@H](CC(C)C)C(=O)N[C@@H](CCC(=O)O)C(=O)N[C@@H](CO)C(=O)N[C@@H](C)C(N)=O)[C@@H](C)CC)C(=O)O [Compound 12] |
| – | 0.14 nM | CCCCCCCCCCCCCCCC(=O)N[C@@H](CCC(=O)NCCCC[C@H](NC(=O)[C@H](CCC(=O)O)NC(=O)[C@H](CC(=O)O)NC(=O)[C@H](CC(C)C)NC(=O)[C@H](Cc1ccc(O)cc1)NC(=O)[C@H](CCCCN)NC(=O)[C@H](CO)NC(=O)[C@H](Cc1ccc(O)cc1)NC(=O)[C@H](CC(=O)O)NC(=O)[C@H](CO)NC(=O)[C@@H](NC(=O)[C@H](Cc1ccccc1)NC(=O)[C@@H](NC(=O)CNC(=O)[C@H](CCC(N)=O)NC(=O)[C@H](C)NC(=O)[C@@H](N)Cc1c[nH]cn1)[C@@H](C)O)[C@@H](C)O)C(=O)N[C@@H](C)C(=O)N[C@@H](C)C(=O)N[C@@H](CCCCN)C(=O)N[C@@H](CC(=O)O)C(=O)N[C@@H](Cc1ccccc1)C(=O)N[C@H](C(=O)N[C@@H](CCC(=O)O)C(=O)N[C@@H](Cc1c[nH]c2ccccc12)C(=O)N[C@@H](CC(C)C)C(=O)N[C@@H](CCC(=O)O)C(=O)N[C@@H](CO)C(=O)N[C@@H](C)C(N)=O)[C@@H](C)CC)C(=O)O [Compound 11] |
| 0.07 | – | CCCCCCCCCCCCCCCC(=O)N[C@@H](CCC(=O)NCCCC[C@H](NC(=O)[C@H](CCC(=O)O)NC(=O)[C@H](CC(=O)O)NC(=O)[C@H](CC(C)C)NC(=O)[C@H](Cc1ccc(O)cc1)NC(=O)[C@H](CCCCN)NC(=O)[C@H](CO)NC(=O)[C@H](Cc1ccc(O)cc1)NC(=O)[C@H](CC(=O)O)NC(=O)[C@H](CO)NC(=O)[C@@H](NC(=O)[C@H](Cc1ccccc1)NC(=O)[C@@H](NC(=O)CNC(=O)[C@H](CCC(N)=O)NC(=O)[C@@H]1CCCN1C(=O)[C@@H](N)Cc1c[nH]cn1)[C@@H](C)O)[C@@H](C)O)C(=O)N[C@@H](C)C(=O)N[C@@H](C)C(=O)N[C@@H](CCCCN)C(=O)N[C@@H](CC(=O)O)C(=O)N[C@@H](Cc1ccccc1)C(=O)N[C@H](C(=O)N[C@@H](CCC(=O)O)C(=O)N[C@@H](Cc1c[nH]c2ccccc12)C(=O)N[C@@H](CC(C)C)C(=O)N[C@@H](CCC(=O)O)C(=O)N[C@@H](CO)C(=O)N[C@@H](C)C(N)=O)[C@@H](C)CC)C(=O)O [Compound 13] |
| 0.04 | – | CCCCCCCCCCCCCCCC(=O)N[C@@H](CCC(=O)NCCCC[C@H](NC(=O)[C@H](CCC(=O)O)NC(=O)[C@H](CC(=O)O)NC(=O)[C@H](CC(C)C)NC(=O)[C@H](Cc1ccc(O)cc1)NC(=O)[C@H](CCCCN)NC(=O)[C@H](CO)NC(=O)[C@H](Cc1ccc(O)cc1)NC(=O)[C@H](CC(=O)O)NC(=O)[C@H](CO)NC(=O)[C@@H](NC(=O)[C@H](Cc1ccccc1)NC(=O)[C@@H](NC(=O)CNC(=O)[C@H](CCC(N)=O)NC(=O)C1(NC(=O)[C@@H](N)Cc2c[nH]cn2)CCC1)[C@@H](C)O)[C@@H](C)O)C(=O)N[C@@H](C)C(=O)N[C@@H](C)C(=O)N[C@@H](CCCCN)C(=O)N[C@@H](CC(=O)O)C(=O)N[C@@H](Cc1ccccc1)C(=O)N[C@H](C(=O)N[C@@H](CCC(=O)O)C(=O)N[C@@H](Cc1c[nH]c2ccccc12)C(=O)N[C@@H](CC(C)C)C(=O)N[C@@H](CCC(=O)O)C(=O)N[C@@H](CO)C(=O)N[C@@H](C)C(N)=O)[C@@H](C)CC)C(=O)O [Compound 14] |
